Measurements as given in patent US20180045715A1, “STRUCTURE AND FUNCTION OF THE SALICYCLIC ACID BINDING SITES ON HUMAN HMGB1 AND METHODS OF USE THEREOF FOR THE RATIONAL DESIGN OF BOTH SALICYCLIC ACID DERIVATIVES AND OTHER AGENTS THAT ALTER ANIMAL AND PLANT HMGBS ACTIVITIES” (Boyce Thompson Institute for Plant Research, Inc., priority 2015, published 2018).
Changes are numbered by the printed parent chain. Each block holds one compound with its values, some of them ahead of it.

What was measured:
AtHMGB3 = molecular target: T1, AtHMGB3 (Arabidopsis thaliana, UniProt P93047); assay: SPR: AtHMGB3 binding to immobilized 3AESA; design: providing a full length Arabidopsis thaliana HMGB1 or HMGB3 (AtHMGB1 or AtHMGB3) protein; 6x His; made in house; host or cells: Escherichia coli BL21
T1 sequence (P93047 1-141): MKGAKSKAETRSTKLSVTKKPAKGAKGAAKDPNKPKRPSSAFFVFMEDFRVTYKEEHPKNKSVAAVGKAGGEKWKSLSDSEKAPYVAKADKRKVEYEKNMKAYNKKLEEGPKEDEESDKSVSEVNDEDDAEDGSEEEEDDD

AtHMGB1 = molecular target: T2, AtHMGB1 (Arabidopsis thaliana, UniProt O49595); assay: SPR: AtHMGB1 binding to immobilized 3AESA
T2 sequence (O49595 1-178): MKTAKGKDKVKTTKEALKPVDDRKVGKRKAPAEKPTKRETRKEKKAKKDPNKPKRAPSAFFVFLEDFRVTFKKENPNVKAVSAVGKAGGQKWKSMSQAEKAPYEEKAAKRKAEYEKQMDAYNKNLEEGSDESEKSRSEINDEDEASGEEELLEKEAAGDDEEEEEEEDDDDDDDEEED
Experimental: For SPR, 3-AESA was immobilized on a CM5 sensor chip (GE Healthcare) using the amine coupling kit (GE Healthcare). To test SA binding activity, 0.5 μM HMGB1 in HBS-EP buffer (0.01 M HEPES, pH 7.4, 0.15 M NaCl, 3 mM EDTA, 0.005% v/v Surfactant P20; GE Healthcare) without or with varying concentrations of SA was flowed through 3-AESA-immobilized or mock-coupled flow cells. The binding signals were determined by subtracting out the signal from the mock-coupled flow cell.

HMGB1^RE = molecular target: T3, HMGB1^RE (Homo sapiens, UniProt P09429); assay: Chemotaxis assay (Boyden chambers): HMGB1^RE-elicited migration of mouse 3T3 fibroblasts; type: cell-based
T3 construct: (i) full length: residues 2-215; 6x His (cleaved yes); made in house; host or cells: Escherichia coli BL21
T3 sequence (P09429 2-215): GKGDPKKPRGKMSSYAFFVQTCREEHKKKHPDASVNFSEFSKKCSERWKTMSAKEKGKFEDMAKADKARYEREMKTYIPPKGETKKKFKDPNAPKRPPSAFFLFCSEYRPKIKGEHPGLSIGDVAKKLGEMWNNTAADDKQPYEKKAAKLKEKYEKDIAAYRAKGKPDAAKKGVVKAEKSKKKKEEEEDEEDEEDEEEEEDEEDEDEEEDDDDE
Experimental: (§1) Cell migration was assayed using Boyden chambers (Venereau et al., 2012). The downside of PVP-free polycarbonate filters (8 μm pores; Millipore) was coated with 50 μg/ml fibronectin (Sigma). Serum-free DMEM (negative control), DMEM containing 0.1 nM fMLP (positive control; Sigma), or DMEM containing 1 nM HMGB1^RE or HMGB1^SS were placed in the lower chamber, together with different concentrations of SA (Sigma). The mouse 3T3 fibroblast cells were cultured in DMEM media supplemented with 10% CS until 90% confluence, washed twice with PBS to eliminate any floating cells, and harvested with trypsin. 50,000 cells in 200 μL were added to the upper chamber, and cells were left to migrate for 3 h at 37° C. Non-migrating cells were removed with a cotton swab, and migrated cells were fixed with ethanol and stained with Giemsa.
(§2) HMGB1^RE acts as a chemo-attractant that mediates migration of several cell types, including monocytes, fibroblasts, mesoangioblasts, smooth muscle cells, and colon cancer cells (Venereau et al., 2012). To determine whether SA alters HMGB 1's chemo-attractant activity, a chemotaxis assay was performed with mouse 3T3 fibroblasts.

[1] = test system: fMLP-induced migration of NIH/3T3 fibroblast cells; assay: Chemotaxis assay: fMLP-induced fibroblast migration (specificity control); type: cell-based, mouse; settings: 0.1 nM fMLP
Experimental: as §1, §2

[2] = molecular target: T4, mutant (R24A/K28A) HMGB1^RE (Homo sapiens, UniProt P09429, K28A/R24A); assay: Chemotaxis assay with mutant R24A/K28A HMGB1^RE; type: cell-based; settings: NIH/3T3 fibroblasts
T4 construct: (i) full length: residues 2-215; made in house
T4 sequence (P09429 2-215 R24A/K28A): T3 sequence (P09429 2-215) with R23A, K27A
Experimental: as §1
(§3) An alternative explanation is that SA, at low concentrations, affects another factor in vivo, which results indirectly in suppression of HMGB1^RE-induced chemotaxis. […] Therefore, these residues were mutated to Ala to form the double mutant Arg24Ala/Lys28Ala (R24A/K28A).

[3] = molecular target: T5, full-length (FL) R24A/K28A HMGB1 (Homo sapiens, UniProt P09429, K28A/R24A); assay: 15N-1H HSQC NMR binding to R24A/K28A HMGB1; settings: ~0.1 mM protein; 15 mM SA, 3 mM ac3AESA or 3 mM amorfrutin B1
T5 construct: (i) full length: residues 2-215; made in house
T5 sequence (P09429 2-215 R24A/K28A): T3 sequence (P09429 2-215) with R23A, K27A
Experimental: […] Samples were analyzed with and without SA or other candidate inhibitors at 25° C. Chemical shift perturbation studies were carried out using either a Bruker Avance 800 MHz Avance NMR system with 4-mm NMR tubes, or using a Bruker Avance 600 MHz NMR spectrometer equipped with a 1.7 mm micro cryoprobe. 1024 or 2048 complex points were acquired for each of 80 to 200 increments in the ^15N dimension with a recycle delay of 1 s. Each spectrum was typically acquired for 2-8 hrs. Chemical shift assignments were determined using a uniformly ^13C,^15N-enriched HMGB1-ΔC construct at 25° C. via traditional triple-resonance NMR experiments (Biamonti et al., 1994; Moseley et al., 2001) recorded on a Bruker 800 MHz NMR spectrometer equipped with a 5 mm cryoprobe. Disulfide oxidation studies were carried out using the ^15N-^1H SOFAST-HMQC NMR experiment (Schanda & Brutscher, 2005; Schanda et al., 2005; Zandarashvili et al., 2013).
as §3

[4] = de-acetylation by esterases in human plasma (Costello et al., 1984); cited from earlier work
COX = settings: cited from earlier work

SMILES: NCCc1cccc(C(=O)O)c1O [3AESA, 3-aminoethyl SA]
binding of AtHMGB3 to 3AESA immobilized to SPR sensor chip (AtHMGB3): effectively bound
binding of AtHMGB1 to 3AESA immobilized to SPR sensor chip (AtHMGB1): effectively bound

IC50 (HMGB1^RE; NIH/3T3 fibroblasts, 1 nM HMGB1^RE, read-out: IC50, inhibition of chemo-attractant activity of HMGB1^RE): ~0.06 µM
times more potent than SA at inhibiting the chemo-attractant activity of HMGB1^RE (HMGB1^RE; relative to SA): 50-70 times
inhibition of R24A/K28A HMGB1^RE's chemo-attractant activity [2]: only partially
binding to R24A/K28A HMGB1 (CSPs in HSQC) [3]: do not bind
SMILES: COc1cc(CCc2ccccc2)c(C(=O)O)c(O)c1C/C=C(\C)CCC=C(C)C [amorfrutin B1]
effect on fibroblast migration induced by fMLP [1]: but not of 0.1 nM fMLP, was blocked

SMILES: CC(=O)Oc1ccccc1C(=O)O [aspirin, acetylsalicylic acid]
half-life of conversion to SA [4]: 13 to 19.5 min
IC50, inhibition of COX activity in vitro (COX; literature (Mitchell et al., 1997; Vane, 1971)): 6.3 µg/mL
IC50 (COX; literature, conversion in parentheses, read-out: IC50, inhibition of COX activity in vitro): ~35 µM
